Like-named read-outs stand apart in the source and are kept apart here.
Key:
[1] = target: N-terminal GST tagged recombinant human RET cytoplasmic domain (aa 658-end), wild type RET kinase (Homo sapiens (Human), UniProt P07949); experiment: RET Enzyme Assay (HTRF KinEASE-TK), wild type RET; type: biochemical
[2] = target: Kif5b-RET fusion protein in HEK-293 cells (Homo sapiens, UniProt P07949); experiment: cell-based
Protocol: The cellular potency of a compound inhibiting RET kinase was determined in HEK-293 cells expressing a Kif5b-RET fusion protein. Briefly, HEK-293 cells expressing a Kif5b-RET fusion protein were plated at 50K cells/well in 96 well poly-D-Lysine coated plates the day prior to the assay. The cells were incubated for 1 hour with test compound in DMEM (Dulbecco's Modified Eagle Medium) at a final DMSO concentration of 0.5%. […] After 1 hour the media was removed, the cells were fixed with 3.8% formaldehyde for 20 min, washed with PBS, and permeabilized for 10 min with 100% methanol. […] All antibodies were diluted in LI-COR Block containing 0.05% Tween. The plates were washed with PBS-0.05% Tween20, 100 μL PBS was added to each well, and the plates were read on a LI-COR Aerius fluorescent plate reader. The phospho-RET signal was normalized to the GAPDH signal. […] The IC50 value is the point where the curve crosses 50 POC.

[3] = HEK-293 cells expressing Kif5b-RET, read-out: KIF5B-RET pTYR1062 Cell IC50
[4] = HEK-293 cells expressing Kif5b-RET, phospho-RET(Tyr1062), read-out: KIF5B-RET pTYR1062 Cell IC50

Chain of N-terminal GST tagged recombinant human RET cytoplasmic domain (aa 658-end), wild type RET kinase (P07949 658-1114): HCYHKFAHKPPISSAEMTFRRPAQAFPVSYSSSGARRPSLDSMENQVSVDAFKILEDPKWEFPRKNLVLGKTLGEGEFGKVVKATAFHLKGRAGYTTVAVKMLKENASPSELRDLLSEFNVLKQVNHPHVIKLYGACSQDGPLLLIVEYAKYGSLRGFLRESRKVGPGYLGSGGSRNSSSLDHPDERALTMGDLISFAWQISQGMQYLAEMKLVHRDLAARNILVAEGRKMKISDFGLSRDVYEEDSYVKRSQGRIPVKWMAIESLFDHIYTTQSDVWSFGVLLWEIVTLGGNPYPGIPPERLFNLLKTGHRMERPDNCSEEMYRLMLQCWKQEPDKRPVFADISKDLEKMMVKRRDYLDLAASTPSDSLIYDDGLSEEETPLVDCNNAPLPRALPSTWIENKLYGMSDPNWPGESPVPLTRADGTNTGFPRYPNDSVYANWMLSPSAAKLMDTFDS
Chain of Kif5b-RET fusion protein in HEK-293 cells (P07949 29-1114 limits assumed): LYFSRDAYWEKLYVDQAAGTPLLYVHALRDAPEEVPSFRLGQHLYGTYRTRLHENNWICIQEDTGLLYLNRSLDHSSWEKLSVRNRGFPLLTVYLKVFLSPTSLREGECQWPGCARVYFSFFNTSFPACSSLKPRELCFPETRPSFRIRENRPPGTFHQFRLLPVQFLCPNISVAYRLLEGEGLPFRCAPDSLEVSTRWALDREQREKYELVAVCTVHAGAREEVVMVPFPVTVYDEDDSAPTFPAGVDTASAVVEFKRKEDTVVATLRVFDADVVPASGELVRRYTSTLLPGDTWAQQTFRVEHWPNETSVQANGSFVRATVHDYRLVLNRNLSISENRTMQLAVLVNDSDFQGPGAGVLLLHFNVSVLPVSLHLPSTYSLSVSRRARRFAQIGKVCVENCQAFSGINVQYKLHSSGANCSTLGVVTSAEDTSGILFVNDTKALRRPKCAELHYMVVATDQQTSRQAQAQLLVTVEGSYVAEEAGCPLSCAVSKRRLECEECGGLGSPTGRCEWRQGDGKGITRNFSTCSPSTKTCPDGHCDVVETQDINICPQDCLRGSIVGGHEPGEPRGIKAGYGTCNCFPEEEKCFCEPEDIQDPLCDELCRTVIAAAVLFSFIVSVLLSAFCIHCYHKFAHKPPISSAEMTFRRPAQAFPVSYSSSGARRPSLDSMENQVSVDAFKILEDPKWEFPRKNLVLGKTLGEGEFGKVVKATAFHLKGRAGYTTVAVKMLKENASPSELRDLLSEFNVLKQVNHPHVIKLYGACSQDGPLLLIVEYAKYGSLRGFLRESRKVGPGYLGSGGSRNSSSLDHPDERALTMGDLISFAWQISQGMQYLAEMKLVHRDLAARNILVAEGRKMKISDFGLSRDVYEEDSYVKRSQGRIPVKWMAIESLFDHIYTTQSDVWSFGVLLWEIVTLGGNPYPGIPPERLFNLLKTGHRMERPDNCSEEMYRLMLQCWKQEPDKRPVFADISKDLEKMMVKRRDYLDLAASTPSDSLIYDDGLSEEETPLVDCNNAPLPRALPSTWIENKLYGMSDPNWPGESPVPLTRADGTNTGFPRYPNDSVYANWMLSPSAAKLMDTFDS

Structure (SMILES)	IC50 ([1]; wild type RET, 1 mM ATP)	IC50 [2, 3]	IC50 [2]	also measured
COc1ccc(CN2CCN(c3ccc(-c4cc(-c5cnn(CCOC(C)C)c5)cn5ncc(C#N)c45)cn3)CC2)cn1 [Example 704, 6-(1-(2-isopropoxyethyl)-1H-pyrazol-4-yl)-4-(6-(4-((6-methoxypyridin-3-yl)methyl)piperazin-1-yl)pyridin-3-yl)pyrazolo[1,5-a]pyridine-3-carbonitrile]	0.0301 µM	–	0.0083 µM	–
Cc1nn(C(C)(C)C)cc1-c1cc(-c2ccc(N3CCN(Cc4ccccc4)CC3)nc2)c2c(C#N)cnn2c1 [Example 616, 4-(6-(4-benzylpiperazin-1-yl)pyridin-3-yl)-6-(1-(tert-butyl)-3-methyl-1H-pyrazol-4-yl)pyrazolo[1,5-a]pyridine-3-carb onitrile]	0.0608 µM	–	0.0852 µM	–
COc1ccc(CN2CCN(c3ccc(-c4cc(-c5cnn(C)c5)cn5ncc(C#N)c45)cn3)CC2)c(C)n1 [Example 678, 4-(6-(4-((6-methoxy-2-methylpyridin-3-yl)methyl)piperazin-l-yl)pyridin-3-yl)-6-(1-methyl-1H-pyrazol-4-yl)pyrazolo[1,5-a]pyridine-3-carbonitrile]	0.015 µM	–	0.0163 µM	–
CNC(=O)N1CCN(c2ccc(-c3cc(-c4cnn(C)c4)cn4ncc(C#N)c34)cn2)CC1 [Example 387, 4-(5-(3-cyano-6-(1-methyl-1H-pyrazol-4-yl)pyrazolo[1,5-a]pyridin-4-yl)pyridin-2-yl)-N-methylpiperazine-1-carboxamide]	0.0251 µM	–	0.0532 µM	–
COc1ccc(CN2CCN(c3ccc(-c4cc(-c5cnn(C)c5)cn5ncc(Cl)c45)cn3)CC2)cn1 [Example 742, 3-chloro-4-(6-(4-((6-methoxypyridin-3-yl)methyl)piperazin-1-yl)pyridin-3-yl)-6-(1-methyl-1H-pyrazol-4-yl)pyrazolo[1,5-a]pyridine]	0.0373 µM	–	0.0385 µM	–
Cc1nn(C)c(C)c1-c1cc(-c2ccc(N3CCN(Cc4ccccc4)CC3)nc2)c2c(C#N)cnn2c1 [Example 613, 4-(6-(4-benzylpiperazin-1-yl)pyridin-3-yl)-6-(1,3,5-trimethyl-1H-pyrazol-4-yl)pyrazolo[1,5-a]pyridine-3-carbonitrile]	0.122 µM	–	0.361 µM	–
CN(C)C(=O)C1CCN(c2ccc(-c3cc(-c4cnn(C)c4)cn4ncc(C#N)c34)cn2)CC1 [Example 562, 1-(5-(3-cyano-6-(1-methyl-1H-pyrazol-4-yl)pyrazolo[1,5-a]pyridine-4-yl)pyridine-2-yl)-N,N-dimethylpiperidine-4-carboxamide 2,2,2-trifluoroacetate]	–	0.0586 µM	–	IC50 [1]: 0.056 µM
CN(C)CCC(=O)N1CCN(c2ccc(-c3cc(-c4cnn(C)c4)cn4ncc(C#N)c34)cn2)CC1 [Example 33, 4-(6-(4-(3-(dimethylamino)propanoyl)piperazin-1-yl)pyridin-3-yl)-6-(1-methyl-1H-pyrazol-4-yl)pyrazolo[1,5-a]pyridine-3-carbonitrile bis(2,2,2-trifluoroacetate)]	0.0429 µM	–	–	IC50 ([2]; read-out: KIF5B-RET pTYR1062 Cell IC50): 0.31 µM

Now from value to compound, other results behind:

IC50 ([1]; wild type RET, 1 mM ATP)	IC50 [2, 3]	Structure (SMILES)	IC50 [2]	also measured
0.0425 µM	0.0747 µM	Cn1cc(-c2cc(-c3ccc(N4CCN(Cc5ccc(OCC(F)(F)F)nc5)CC4)nc3)c3c(C#N)cnn3c2)cn1 [Example 674, 6-(1-methyl-1H-pyrazol-4-yl)-4-(6-(4-((6-(2,2,2-trifluoroethoxy)pyridin-3-yl)methyl)piperazin-1-yl)pyridin-3-yl)pyrazolo[1,5-a]pyridine-3-carbonitrile]	–	–
0.14 µM	0.215 µM	CCc1cnn2cc(-c3cnn(C)c3)cc(-c3ccc(N4CCNCC4)nc3)c12 [Example 657, 3-ethyl-6-(1-methyl-1H-pyrazol-4-yl)-4-(6-(piperazin-1-yl)pyridin-3-yl)pyrazolo[1,5-a]pyridine]	–	–
0.0136 µM	0.0241 µM	Cn1cc(-c2cc(-c3ccc(N4CCN(Cc5ccc(OC(F)F)nc5)CC4)nc3)c3c(C#N)cnn3c2)cn1 [Example 675, 4-(6-(4-((6-(difluoromethoxy)pyridin-3-yl)methyl)piperazin-1-yl)pyridin-3-yl)-6-(1-methyl-1H-pyrazol-4-yl)pyrazolo[1,5-a]pyridine-3-carbonitrile]	–	–
0.104 µM	–	CC(C)C(=O)N[C@H]1CCCN(c2ccc(-c3cc(-c4cnn(C)c4)cn4ncc(C#N)c34)cn2)C1 [Example 225, (S)—N-(1-(5-(3-cyano-6-(1-methyl-1H-pyrazol-4-yl)pyrazolo[1,5-a]pyridin-4-yl)pyridin-2-yl)piperidin-3-yl)isobutyramide]	–	IC50 [2, 4]: 0.462 µM
0.0869 µM	0.0694 µM	Cc1cnn2cc(-c3cnn(C)c3)cc(-c3ccc(N4CCN(Cc5ccccc5)CC4)nc3)c12 [Example 653, 4-(6-(4-benzylpiperazin-1-yl)pyridin-3-yl)-3-methyl-6-(1-methyl-1H-pyrazol-4-yl)pyrazolo[1,5-a]pyridine]	–	–
0.0108 µM	0.0077 µM	COc1cccc(CN2CCN(c3ccc(-c4cc(-c5cnn(C)c5)cn5ncc(C#N)c45)cn3)CC2)n1 [Example 399, 4-(6-(4-((6-methoxypyridin-2-yl)methyl)piperazin-1-yl)pyridin-3-yl)-6-(1-methyl-1H-pyrazol-4-yl)pyrazolo[1,5-a]pyridine-3-carbonitrile]	–	–
0.0194 µM	0.0243 µM	COc1cccc(CN2CCN(c3ccc(-c4cc(-c5cn[nH]c5)cn5ncc(C#N)c45)cn3)CC2)n1 [Example 699, 4-(6-(4-((6-methoxypyridin-2-yl)methyl)piperazin-1-yl)pyridin-3-yl)-6-(1H-pyrazol-4-yl)pyrazolo[1,5-a]pyridine-3-carbonitrile]	–	–
0.0371 µM	0.0485 µM	COC(CN1CCN(c2ccc(-c3cc(-c4cnn(C)c4)cn4ncc(C#N)c34)cn2)CC1)C(C)(C)C (stereo not shown) [Example 417, 4-(6-(4-(2-methoxy-3,3-dimethylbutyl)piperazin-1-yl)pyridin-3-yl)-6-(1-methyl-1H-pyrazol-4-yl)pyrazolo[1,5-a]pyridine-3-carbonitrile]	–	–
0.0136 µM	–	C[C@H](O)C(=O)NC1CCN(c2ccc(-c3cc(-c4cnn(C)c4)cn4ncc(C#N)c34)cn2)CC1 [Example 180, (S)-N-(1-(5-(3-cyano-6-(1-methyl-1H-pyrazol-4-yl)pyrazolo[1,5-a]pyridin-4-yl)pyridin-2-yl)piperidin-4-yl)-2-hydroxypropanamide]	–	IC50 [2, 4]: 0.135 µM
0.0201 µM	0.0065 µM	COc1ccc(CN2CCN(c3ccc(-c4cc(-c5cnn(CC(C)CO)c5)cn5ncc(C#N)c45)cn3)CC2)cn1 (stereo in doubt) [Example 707, (R)-6-(1-(3-hydroxy-2-methylpropyl)-1H-pyrazol-4-yl)-4-(6-(4-((6-methoxypyridin-3-yl)methyl)piperazin-1-yl)pyridin-3-yl)pyrazolo[1,5-a]pyridine-3-carbonitrile]	–	–
0.0108 µM	0.0046 µM	CC(C)S(=O)(=O)CCN1CCN(c2ccc(-c3cc(-c4cnn(C)c4)cn4ncc(C#N)c34)cn2)CC1 [Example 403, 4-(6-(4-(2-(isopropylsulfonyl)ethyl)piperazin-1-yl)pyridin-3-yl)-6-(1-methyl-1H-pyrazol-4-yl)pyrazolo[1,5-a]pyridine-3-carbonitrile]	–	–
0.0193 µM	0.0173 µM	COc1cc(C)c(CN2CCN(c3ccc(-c4cc(-c5cnn(C)c5)cn5ncc(C#N)c45)cn3)CC2)cn1 [Example 672, 4-(6-(4-((6-methoxy-4-methylpyridin-3-yl)methyl)piperazin-1-yl)pyridin-3-yl)-6-(1-methyl-1H-pyrazol-4-yl)pyrazolo[1,5-a]pyridine-3-carbonitrile]	–	–

— patent US10023570B2 (Array BioPharma, Inc., priority 2015, dated 2018)
